The values that follow come from patent US7109193B2, “Tricyclic diazepines tocolytic oxytocin receptor antagonists” (Wyeth, priority 2001, dated 2006).

The target of the test is T1, human vasopressin V1a receptor subtype (Homo sapiens, UniProt P37288).
T1 construct: host or cells: CHO cells (pZeoSV vector for the Thibonnier line)
The experiment in a line: Vasopressin binding in Chinese Hamster Ovary cell membranes expressing human vasopressin V1a subtype receptors. The note with it: 100 nM, CHO cell membranes, [3H]Manning ligand, values without parentheses. In short, it runs like this: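 Membranes from CHO cells expressing human V1a receptor were incubated with [3H]Manning ligand (added as 20 μL of 8 nM) in pH 7.4 Tris buffer with MgCl2, BSA and protease inhibitors, 60 min at room temperature. Bound radioactivity was counted after filtration; values are percent inhibition at a stated concentration or IC50.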

For orientation: inhibition means the change of the read-out against control, counted positive when it falls.

Each structure is given as a SMILES string.

T1 sequence (P37288 whole entry): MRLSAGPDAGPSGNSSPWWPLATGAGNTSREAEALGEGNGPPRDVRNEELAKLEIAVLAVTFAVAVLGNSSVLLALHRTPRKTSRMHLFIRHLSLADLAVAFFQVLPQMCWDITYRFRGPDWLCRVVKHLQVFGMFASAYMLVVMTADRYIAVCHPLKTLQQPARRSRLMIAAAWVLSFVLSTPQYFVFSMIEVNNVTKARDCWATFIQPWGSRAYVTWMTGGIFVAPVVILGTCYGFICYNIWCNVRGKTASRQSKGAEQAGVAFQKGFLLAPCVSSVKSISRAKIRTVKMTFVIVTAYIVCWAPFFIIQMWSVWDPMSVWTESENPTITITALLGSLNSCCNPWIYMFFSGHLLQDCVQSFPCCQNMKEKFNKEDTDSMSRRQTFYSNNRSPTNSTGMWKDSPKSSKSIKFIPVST

As to `C=CCN1CCN(C(=O)c2ccc3n2Cc2ccccc2N(C(=O)c2ccc(-n4c(C)ccc4C)c(OC)c2)C3)CC1` [Example 318, (4-Allyl-1-piperazinyl){10-[4-(2,5-dimethyl-1H-pyrrol-1-yl)-3-methoxybenzoyl]-10,11-dihydro-5H-pyrrolo[2,1-c][1,4]benzodiazepin-3-yl}methanone], the inhibition at 0.1 µM worked out at 5%.
`COc1cccc(-c2cc(OC)c(C(=O)N3Cc4ccc(C(=O)N5CCCN(C)CC5)n4Cc4ccccc43)cc2Cl)c1` [Example 67, {10-[(6-Chloro-3,3′-dimethoxy[1,1′-biphenyl]-4-yl)carbonyl]-10,11-dihydro-5H-pyrrolo[2,1-c][1,4]benzodiazepin-3-yl}(4-methyl-1,4-diazepan-1-yl)methanone]: the inhibition at 0.1 µM is -4%.
Turning to `COc1cccc(-c2ccc(C(=O)N3Cc4ccc(C(=O)N5CCN(CCCN(C)C)CC5)n4Cc4ccccc43)cc2OC)c1` [Example 255, {10-[(2,3′-Dimethoxy[1,1′-biphenyl]-4-yl)carbonyl]-10,11-dihydro-5H-pyrrolo[2,1-c][1,4]benzodiazepin-3-yl}{4-[3-(dimethylamino)propyl]-1-piperazinyl}methanone], the inhibition at 0.1 µM stood at 53%.
Under `COc1cc(C(=O)N2Cc3ccc(C(=O)N4CCC(N5CCCCC5)CC4)n3Cc3ccccc32)ccc1-n1c(C)ccc1C` [Example 311, {10-[4-(2,5-Dimethyl-1H-pyrrol-1-yl)-3-methoxy-benzoyl]-10,11-dihydro-5H-pyrrolo[2,1-c][1,4]benzodiazepin-3-yl}[4-(1-piperidinyl)-1-piperidinyl]-methanone] stands -5%; under `COc1cc(C(=O)N2Cc3ccc(C(=O)NCCCn4ccnc4)n3Cc3ccccc32)ccc1-n1c(C)ccc1C` [Example 312, 10-[4-(2,5-Dimethyl-1H-pyrrol-1-yl)-3-methoxybenzoyl]-N-[3-(1H-imidazol-1-yl)propyl]-10,11-dihydro-5H-pyrrolo[2,1-c][1,4]benzodiazepine-3-carboxamide], 7%; under `COc1cc(C(=O)N2Cc3ccc(C(=O)NCCCN(C)C)n3Cc3ccccc32)ccc1-n1c(C)ccc1C` [Example 308, N-[3-(Dimethylamino)propyl]-10-[4-(2,5-dimethyl-1H-pyrrol-1-yl)-3-methoxybenzoyl]-10,11-dihydro-5H-pyrrolo[2,1-c][1,4]benzodiazepine-3-carboxamide], -12%.
`COc1cc(C(=O)N2Cc3ccc(C(=O)N4CCCN(C)CC4)n3Cc3ccccc32)ccc1-n1c(C)ccc1C` [Example 307, {10-[4-(2,5-Dimethyl-1H-pyrrol-1-yl)-3-methoxybenzoyl]-10,11-dihydro-5H-pyrrolo[2,1-c][1,4]benzodiazepin-3-yl}(4-methyl-1,4-diazepan-1-yl)methanone]: the inhibition at 0.1 µM was -7%.
Regarding `CN1CCN(C(=O)c2ccc3n2Cc2ccccc2N(C(=O)c2ccc(-c4cccc5ccccc45)cc2Cl)C3)CC1` [Example 58, {10-[2-Chloro-4-(1-naphthyl)benzoyl]-10,11-dihydro-5H-pyrrolo[2,1-c][1,4]benzodiazepin-3-yl}(4-methyl-1-piperazinyl)methanone], the inhibition at 0.1 µM stood at 5%.
Regarding `CN(C)CCCN1CCN(C(=O)c2ccc3n2Cc2ccccc2N(C(=O)c2ccc(-c4cccc5ccccc45)cc2Cl)C3)CC1` [Example 256, {10-[2-Chloro-4-(1-naphthyl)benzoyl]-10,11-dihydro-5H-pyrrolo[2,1-c][1,4]benzodiazepin-3-yl}{4-[3-(dimethylamino)propyl]-1-piperazinyl}methanone], the inhibition at 0.1 µM came to 7%.
For `CN1CCCN(C(=O)c2ccc3n2Cc2ccccc2N(C(=O)c2ccc(-c4cccc5ccccc45)cc2Cl)C3)CC1` [Example 71, {10-[2-Chloro-4-(1-naphthyl)benzoyl]-10,11-dihydro-5H-pyrrolo[2,1-c][1,4]benzodiazepin-3-yl}(4-methyl-1,4-diazepan-1-yl)methanone], the inhibition at 0.1 µM worked out at 4%.
Regarding `COc1ccccc1-c1ccc(C(=O)N2Cc3ccc(C(=O)N[C@@H](Cc4c[nH]cn4)C(N)=O)n3Cc3ccccc32)cc1` [Example 285, N-[(1S)-2-Amino-1-(1H-imidazol-4-ylmethyl)-2-oxoethyl]-10-[(2′-methoxy[1,1′-biphenyl]-4-yl)carbonyl]-10,11-dihydro-5H-pyrrolo[2,1-c][1,4]benzodiazepine-3-carboxamide], the inhibition at 0.1 µM turned out to be 38%.
As to `COc1ccccc1-c1ccc(C(=O)N2Cc3ccc(C(=O)N4CCN(CCCN(C)C)CC4)n3Cc3ccccc32)cc1OC` [Example 254, {10-[(2,2′-Dimethoxy[1,1′-biphenyl]-4-yl)carbonyl]-10,11-dihydro-5H-pyrrolo[2,1-c][1,4]benzodiazepin-3-yl}{4-[3-(dimethylamino)propyl]-1-piperazinyl}methanone], the inhibition at 0.1 µM amounted to 7%.
Take `COc1cc(C(=O)N2Cc3ccc(C(=O)N4CCN(CCN(C)C)CC4)n3Cc3ccccc32)ccc1-n1c(C)ccc1C` [Example 316, {4-[2-(Dimethylamino)ethyl]-1-piperazinyl}{10-[4-(2,5-dimethyl-1H-pyrrol-1-yl)-3-methoxybenzoyl]-10,11-dihydro-5H-pyrrolo[2,1-c][1,4]benzodiazepin-3-yl}methanone]: the inhibition at 0.1 µM came out at 0%.
For the compound `CC(C)N1CCN(C(=O)c2ccc3n2Cc2ccccc2N(C(=O)c2ccc(-c4cccc5ccccc45)cc2Cl)C3)CC1` [Example 243, {10-[2-Chloro-4-(1-naphthyl)benzoyl]-10,11-dihydro-5H-pyrrolo[2,1-c][1,4]benzodiazepin-3-yl}(4-isopropyl-1-piperazinyl)methanone], the inhibition at 0.1 µM was 5%.
Turning to `COc1cccc(-c2cc(OC)c(C(=O)N3Cc4ccc(C(=O)N5CCN(C)CC5)n4Cc4ccccc43)cc2Cl)c1` [Example 54, {10-[(6-Chloro-3,3′-dimethoxy[1,1′-biphenyl]-4-yl)carbonyl]-10,11-dihydro-5H-pyrrolo[2,1-c][1,4]benzodiazepin-3-yl}(4-methyl-1-piperazinyl)methanone], the inhibition at 0.1 µM is -4%.
Take `COc1ccccc1-c1ccc(C(=O)N2Cc3ccc(C(=O)N4CCCN(C)CC4)n3Cc3ccccc32)cc1OC` [Example 69, {10-[(2,2′-Dimethoxy[1,1′-biphenyl]-4-yl)carbonyl]-10,11-dihydro-5H-pyrrolo[2,1-c][1,4]benzodiazepin-3-yl}(4-methyl-1,4-diazepan-1-yl)methanone]: the inhibition at 0.1 µM was found to be 8%.
Consider `Cc1ccccc1-c1ccc(C(=O)N2Cc3ccc(C(=O)NCCCN(C)C)n3Cc3ccccc32)cc1C` [Example 73, N-[3-(Dimethylamino)propyl]-10-[(2,2′-dimethyl[1,1′-biphenyl]-4-yl)carbonyl]-10,11-dihydro-5H-pyrrolo[2,1-c][1,4]benzodiazepine-3-carboxamide], for which the inhibition at 0.1 µM stood at 46%.
Take `COc1cc(C(=O)N2Cc3cccn3Cc3ccccc32)ccc1-c1ccccc1C(F)(F)F` [Example 19D, (10,11-Dihydro-5H-pyrrolo[2,1-c][1,4]benzodiazepin-10-yl)-(2-methoxy-2′-trifluoromethyl-[1,1′-biphenyl]-4-yl)-methanone]: the inhibition at 0.1 µM worked out at 51%.
Regarding `COc1cc(C(=O)N2Cc3ccc(C(=O)N4CCN(CCCN(C)C)CC4)n3Cc3ccccc32)ccc1-c1ccccc1C` [Example 250, {4-[3-(Dimethylamino)propyl]-1-piperazinyl}{10-[(2-methoxy-2′-methyl[1,1′-biphenyl]-4-yl)carbonyl]-10,11-dihydro-5H-pyrrolo[2,1-c][1,4]benzodiazepin-3-yl}methanone], the inhibition at 0.1 µM amounted to 53%.
For `COc1ccccc1-c1ccc(C(=O)N2Cc3ccc(C(=O)N4CCN(C)CC4)n3Cc3ccccc32)cc1C` [Example 49, {10-[(2′-Methoxy-2-methyl[1,1′-biphenyl]-4-yl)carbonyl]-10,11-dihydro-5H-pyrrolo[2,1-c][1,4]benzodiazepin-3-yl}(4-methyl-1-piperazinyl)methanone], the inhibition at 0.1 µM turned out to be 5%.
`Cc1cc(C(=O)N2Cc3ccc(C(=O)N[C@@H](Cc4c[nH]cn4)C(N)=O)n3Cc3ccccc32)ccc1-c1ccccc1C(F)(F)F` [Example 284, N-[(1S)-2-Amino-1-(1H-imidazol-4-ylmethyl)-2-oxoethyl]-10-{[2-methyl-2′-(trifluoromethyl)[1,1′-biphenyl]-4-yl]carbonyl}-10,11-dihydro-5H-pyrrolo[2,1-c][1,4]benzodiazepine-3-carboxamide]: the inhibition at 0.1 µM turned out to be 0%.
With `Cc1ccccc1-c1ccc(C(=O)N2Cc3ccc(C(=O)N4CCN(C)CC4)n3Cc3ccccc32)cc1` [Example 52, {10-[(2′-Methyl[1,1′-biphenyl]-4-yl)carbonyl]-10,11-dihydro-5H-pyrrolo[2,1-c][1,4]benzodiazepin-3-yl}(4-methyl-1-piperazinyl)methanone] the figure was 54%; with `COc1ccccc1-c1ccc(C(=O)N2Cc3ccc(C(=O)N[C@H]4CN5CCC4CC5)n3Cc3ccccc32)cc1OC` [Example 299, N-[(3R)-1-Azabicyclo[2.2.2]oct-3-yl]-10-[(2,2′-dimethoxy[1,1′-biphenyl]-4-yl)carbonyl]-10,11-dihydro-5H-pyrrolo[2,1-c][1,4]benzodiazepine-3-carboxamide], 14%; with `COc1ccccc1-c1ccc(C(=O)N2Cc3ccc(C(=O)NCCCN(C)C)n3Cc3ccccc32)cc1` [Example 75, N-[3-(Dimethylamino)propyl]-10-[(2′-methoxy[1,1′-biphenyl]-4-yl)carbonyl]-10,11-dihydro-5H-pyrrolo[2,1-c][1,4]benzodiazepine-3-carboxamide], 27%.
As for `COc1cc(C(=O)N2Cc3ccc(C(=O)N4CCCN(C)CC4)n3Cc3ccccc32)ccc1-c1cccc2ccccc12` [Example 68, {10-[3-Methoxy-4-(1-naphthyl)benzoyl]-10,11-dihydro-5H-pyrrolo[2,1-c][1,4]benzodiazepin-3-yl}(4-methyl-1,4-diazepan-1-yl)methanone], the inhibition at 0.1 µM was 9%.
